Consider 15 molecules from patent US8309546B2, “Morpholinopurine derivatives” (Daiichi Sankyo Company, Limited, priority 2008, dated 2012).

For assay [1], the system named is Akt (threonine 308) phosphorylation in AN3CA tumor. Put plainly: Akt phosphorylation inhibition assay in xenograft. Format: in vivo, female nude mouse. Conditions: Mus musculus, AN3-CA, oral, 6 hr after dosing. How it is done:
(§1) A tumor section was prepared from a human endometrial cancer cell strain AN3CA tumor mass formed in a female nude mouse as subcutaneously transplanted tumor and a xenograft model was prepared by subcutaneously transplanting the tumor to a female nude mouse. The test compound at a predetermined concentration was orally administered. After a predetermined time, the anesthetized mouse was exsanguinated to death, and a tumor mass was isolated. The tumor mass was crushed using a lysis buffer containing inhibitors of proteases and dephosphorylating enzymes (Cell Signaling Technology, Inc.) and the supernatant was separated by centrifugation to obtain a tumor extract. The protein content of the tumor extract was measured using DC Protein Assay Kit (Bio-Rad Laboratories, Inc.) and phosphorylation conditions of Akt (threonine 308) and S6 (serine 235 and 236) were analyzed by a usual technique of western blotting using tumor extracts containing the same amount of protein. The primary antibody and the secondary antibody used for detecting each molecule were rabbit anti-phospho-Akt(T308) antibody and HRP-labeled goat anti-rabbit IgG antibody or mouse anti-phospho-S6(S235/236) antibody and HRP-labeled sheep anti-mouse IgG antibody.
(§2) The signal intensity detected using an image analyzer Typhoon 9400 (GE Healthcare) was quantified, and the phosphorylation inhibition rate (%) was calculated by the following formula. Phosphorylation inhibitory activity (%) of Akt and S6 after treatment with test compound=100−100×(B/A) A: Signal intensity derived from phosphorylated protein in tumor mass isolated from mouse untreated with test compound B: Signal intensity derived from phosphorylated protein in tumor mass isolated from mouse treated with test compound

Assay [2] has as its system human ovary cancer cell strain IGROV1. Put plainly: Cell growth inhibition test (MTT), IGROV1. It is filed as cell-based. Conditions: IGROV-1, 72 h, IGROV1, 3 days culture, read-out: concentration exhibiting anti-cell effect (GI50). The procedure, abridged:
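Seed 5000/1000/5000 cells per well (AN3CA/IGROV1/HT29); add compound next day; culture 3 d, 37° C, 5% CO2; MTT 4 h, DMSO, A540. T/C % vs pre-dose baseline; GI50 from bracketing concentrations.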

Assay [3] concerns S6 (serine 235 and 236) phosphorylation in AN3CA tumor. Description: S6 phosphorylation inhibition assay in xenograft. Conditions: Mus musculus, AN3-CA, oral, 6 hr after dosing. It is filed as in vivo, female nude mouse. How it is done: as §1, §2
Assay [4] concerns the target PI3Kα (Homo sapiens, UniProt P42336). Description: PI3K kinase activity inhibition assay. Conditions: Kinase-Glo Plus ATP detection, read-out: IC50 against PI3K. Format: biochemical. The procedure, abridged: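 PI3Kα (50 nM solution) was reacted with 30 μM ATP and 45 μM PIP2 solutions, each in HEPES pH 7.4 with MgCl2 and DTT, for 2 h at room temperature. Remaining ATP was measured by Kinase-Glo Plus luminescence, and inhibition was derived from ATP consumed. IC50 was taken from curve fitting of the serial dilutions.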

PI3Kα, sequence (P42336 whole entry, species assumed): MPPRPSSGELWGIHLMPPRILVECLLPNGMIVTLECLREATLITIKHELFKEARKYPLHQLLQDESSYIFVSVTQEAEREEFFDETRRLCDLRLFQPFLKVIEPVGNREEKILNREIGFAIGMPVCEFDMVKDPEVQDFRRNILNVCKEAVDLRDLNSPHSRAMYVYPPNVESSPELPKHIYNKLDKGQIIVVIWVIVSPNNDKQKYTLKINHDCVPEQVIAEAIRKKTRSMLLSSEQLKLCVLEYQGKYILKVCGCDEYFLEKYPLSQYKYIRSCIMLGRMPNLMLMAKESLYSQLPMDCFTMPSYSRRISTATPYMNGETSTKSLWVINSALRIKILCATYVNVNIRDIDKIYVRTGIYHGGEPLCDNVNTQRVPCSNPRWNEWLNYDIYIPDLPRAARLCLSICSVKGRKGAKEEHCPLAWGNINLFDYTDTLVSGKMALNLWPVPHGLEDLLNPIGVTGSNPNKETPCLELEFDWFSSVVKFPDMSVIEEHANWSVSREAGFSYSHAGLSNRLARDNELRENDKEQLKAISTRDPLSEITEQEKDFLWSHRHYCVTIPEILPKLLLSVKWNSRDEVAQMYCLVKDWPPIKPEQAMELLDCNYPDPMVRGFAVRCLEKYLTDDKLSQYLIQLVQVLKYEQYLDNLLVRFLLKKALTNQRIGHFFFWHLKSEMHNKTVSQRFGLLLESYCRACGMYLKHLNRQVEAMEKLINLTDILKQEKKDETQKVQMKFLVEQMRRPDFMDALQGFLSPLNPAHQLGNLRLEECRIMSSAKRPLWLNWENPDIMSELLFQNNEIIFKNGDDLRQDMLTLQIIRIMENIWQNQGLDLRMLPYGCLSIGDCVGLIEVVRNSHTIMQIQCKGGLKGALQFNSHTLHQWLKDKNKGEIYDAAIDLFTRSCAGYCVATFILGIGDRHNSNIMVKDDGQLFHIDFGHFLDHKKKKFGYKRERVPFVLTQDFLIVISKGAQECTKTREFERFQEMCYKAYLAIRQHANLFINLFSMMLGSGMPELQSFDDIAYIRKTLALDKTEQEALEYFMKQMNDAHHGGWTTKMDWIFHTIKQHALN
PI3Kα, sequence (P27986 whole entry partner, species assumed): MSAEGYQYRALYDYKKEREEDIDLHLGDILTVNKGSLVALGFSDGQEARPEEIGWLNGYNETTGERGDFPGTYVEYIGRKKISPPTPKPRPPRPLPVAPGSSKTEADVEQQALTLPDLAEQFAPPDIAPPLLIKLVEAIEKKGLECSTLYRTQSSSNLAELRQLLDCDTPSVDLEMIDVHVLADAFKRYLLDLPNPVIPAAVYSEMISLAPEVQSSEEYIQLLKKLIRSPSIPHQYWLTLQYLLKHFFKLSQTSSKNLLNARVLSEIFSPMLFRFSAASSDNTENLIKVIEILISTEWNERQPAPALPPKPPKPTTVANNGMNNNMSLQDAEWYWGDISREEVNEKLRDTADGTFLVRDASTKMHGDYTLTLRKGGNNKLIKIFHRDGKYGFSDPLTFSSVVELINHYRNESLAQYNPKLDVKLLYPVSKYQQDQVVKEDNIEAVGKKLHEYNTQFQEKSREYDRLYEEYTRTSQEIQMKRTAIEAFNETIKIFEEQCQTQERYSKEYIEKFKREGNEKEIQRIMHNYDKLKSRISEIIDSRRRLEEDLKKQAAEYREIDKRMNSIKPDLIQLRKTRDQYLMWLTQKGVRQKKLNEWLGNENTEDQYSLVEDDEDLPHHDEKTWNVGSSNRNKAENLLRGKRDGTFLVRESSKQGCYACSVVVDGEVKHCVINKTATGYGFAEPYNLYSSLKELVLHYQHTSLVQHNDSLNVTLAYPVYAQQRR

With `C[C@H](O)C(=O)N1CCN(c2nc3c(N4CCOCC4)nc(-c4cnc(N)nc4)nc3n2CC(F)(F)F)C[C@@H]1C` [Example 109, (2S)-1-{(2S)-4-[2-(2-Aminopyrimidin-5-yl)-6-morpholin-4-yl-9-(2,2,2-trifluoroethyl)-9H-purin-8-yl]-2-methylpiperazin-1-yl}-1-oxopropan-2-ol], the inhibition at 10 mg/kg was greater than 60% in assay [1] and greater than 90% in assay [3]. Also, in assay [2], the GI50 is no more than 5000 nM. Also, in assay [4], the IC50 is less than 10 nM.
As for `CC(C)Cn1c(N2CCN(C(=O)C[C@H](C)O)[C@@H](C)C2)nc2c(N3CCOCC3)nc(-c3cnc(N)nc3)nc21` [Example 85, (2S)-4-{(2S)-4-[2-(2-Aminopyrimidin-5-yl)-9-isobutyl-6-morpholin-4-yl-9H-purin-8-yl]-2-methylpiperazin-1-yl}-4-oxobutan-2-ol], the inhibition at 10 mg/kg in assay [1] was greater than 60%; in assay [3], greater than 90%. In addition, in assay [2], the GI50 was no more than 5000 nM. For the same molecule, the IC50 in assay [4] was less than 10 nM.
On the same counts, the results for `C[C@@H]1CN(c2nc3c(N4CCOCC4)nc(-c4cnc(N)nc4)nc3n2CC(F)(F)F)C[C@H](C)N1C=O` [Example 116, 4-[2-(2-Aminopyrimidin-5-yl)-6-morpholin-4-yl-9-(2,2,2-trifluoroethyl)-9H-purin-8-yl]-cis-2,6-dimethylpiperazine-1-carboaldehyde] are greater than 60%, greater than 90%, no more than 5000 nM and less than 10 nM.
Take `Nc1ncc(-c2nc(N3CCOCC3)c3nc(N4CCN(C(=O)CO)CC4)n(CC(F)(F)F)c3n2)cn1` [Example 67, 2-{4-[2-(2-Aminopyrimidin-5-yl)-6-morpholin-4-yl-9-(2,2,2-trifluoroethyl)-9H-purin-8-yl]piperazin-1-yl}-2-oxoethanol]: the inhibition at 10 mg/kg is 30 to 60% in assay [1] and 70 to 90% in assay [3]. Besides, the GI50 in assay [2] is no more than 5000 nM. For the same molecule, in assay [4], the IC50 was less than 10 nM.
As to `CC[C@H]1CN(c2nc3c(N4CCOCC4)nc(-c4cnc(N)nc4)nc3n2CC(F)(F)F)CCN1C(C)=O` [Example 75, 5-{8-[(3S)-4-Acetyl-3-ethylpiperazin-1-yl]-6-morpholin-4-yl-9-(2,2,2-trifluoroethyl)-9H-purin-2-yl}pyrimidin-2-amine], the values for the inhibition at 10 mg/kg in assay [1] and in assay [3] were greater than 60% and greater than 90%, respectively. Besides, the GI50 in assay [2] was no more than 5000 nM. Moreover, in assay [4], the IC50 was less than 10 nM.
`CC(C)Cn1c(N2CCN(C(=O)CO)CC2)nc2c(N3CCOCC3)nc(-c3cnc(N)nc3)nc21` [Example 89, 2-{4-[2-(2-Aminopyrimidin-5-yl)-9-isobutyl-6-morpholin-4-yl-9H-purin-8-yl]piperazin-1-yl}-2-oxoethanol]: the inhibition at 10 mg/kg in assay [1] is greater than 60%; in assay [3] it was 70 to 90%. Moreover, the GI50 in assay [2] was no more than 5000 nM. Also, in assay [4], the IC50 is less than 10 nM.
On to `C[C@H](O)CC(=O)N1CCN(c2nc3c(N4CCOCC4)nc(-c4cnc(N)nc4)nc3n2CC(F)(F)F)CC1` [Example 69, (2S)-4-{4-[2-(2-Aminopyrimidin-5-yl)-6-morpholin-4-yl-9-(2,2,2-trifluoroethyl)-9H-purin-8-yl]piperazin-1-yl}-4-oxobutan-2-ol], for which the inhibition at 10 mg/kg was greater than 60% in assay [1] and greater than 90% in assay [3]. The GI50 in assay [2] is no more than 5000 nM. In addition, the IC50 in assay [4] is less than 10 nM.
Taken in the same sequence, the figures for `C[C@H]1CN(c2nc3c(N4CCOCC4)nc(-c4cnc(N)nc4)nc3n2CC(F)(F)F)CCN1S(C)(=O)=O` [Example 62, 5-{8-[(3S)-3-Methyl-4-(methylsulfonyl)piperazin-1-yl]-6-morpholin-4-yl-9-(2,2,2-trifluoroethyl)-9H-purin-2-yl}pyrimidin-2-amine] were 30 to 60%, greater than 90%, no more than 5000 nM and less than 10 nM.
Turning to `CC(C)Cn1c(N2CCN(C(=O)[C@H](C)O)CC2)nc2c(N3CCOC[C@@H]3C)nc(-c3cnc(N)nc3)nc21` [Example 131, (2S)-1-(4-{2-(2-Aminopyrimidin-5-yl)-9-isobutyl-6-[(3S)-3-methylmorpholin-4-yl]-9H-purin-8-yl}piperazin-1-yl)-1-oxopropan-2-ol], the inhibition at 10 mg/kg in assay [1] is greater than 60%; in assay [3], greater than 90%. The GI50 in assay [2] is no more than 5000 nM. Besides, in assay [4], the IC50 lay in the range of 10 to 20 nM.
Taken in the same sequence, the figures for `CNc1ncc(-c2nc(N3CCOCC3)c3nc(N4CCN(S(C)(=O)=O)[C@@H](C)C4)n(CC(F)(F)F)c3n2)cn1` [Example 105, N-Methyl-5-{8-[(3S)-3-methyl-4-(methylsulfonyl)piperazin-1-yl]-6-morpholin-4-yl-9-(2,2,2-trifluoroethyl)-9H-purin-2-yl}pyrimidin-2-amine] were 30 to 60%, greater than 90%, no more than 5000 nM and less than 10 nM.
In the case of `CC(C)Cn1c(N2CCN(C(=O)C[C@@H](C)O)CC2)nc2c(N3CCOCC3)nc(-c3cnc(N)nc3)nc21` [Example 81, (2R)-4-{4-[2-(2-Aminopyrimidin-5-yl)-9-isobutyl-6-morpholin-4-yl-9H-purin-8-yl]piperazin-1-yl}-4-oxobutan-2-ol], the inhibition at 10 mg/kg was greater than 60% in assay [1] and greater than 90% in assay [3]. The GI50 in assay [2] is no more than 5000 nM. Besides, the IC50 in assay [4] is less than 10 nM.
For `CC(C)Cn1c(N2CCN(C=O)[C@@H](C)C2)nc2c(N3CCOCC3)nc(-c3cnc(N)nc3)nc21` [Example 102, (2S)-4-[2-(2-Aminopyrimidin-5-yl)-9-isobutyl-6-morpholin-4-yl-9H-purin-8-yl]-2-methylpiperazine-1-carboaldehyde], the results for the inhibition at 10 mg/kg in assay [1] and in assay [3] were greater than 60% and greater than 90%, respectively. Besides, the GI50 in assay [2] was no more than 5000 nM. Further, the IC50 in assay [4] is less than 10 nM.
As to `C[C@H]1CN(c2nc3c(N4CCOCC4)nc(-c4cnc(N)nc4)nc3n2CC(F)(F)F)CCN1C=O` [Example 111, (2S)-4-[2-(2-Aminopyrimidin-5-yl)-6-morpholin-4-yl-9-(2,2,2-trifluoroethyl)-9H-purin-8-yl]-2-methylpiperazine-1-carboaldehyde], the figures for the inhibition at 10 mg/kg in assay [1] and in assay [3] were greater than 60% and greater than 90%, respectively. In assay [2], the GI50 is no more than 5000 nM. The IC50 in assay [4] was less than 10 nM.
In the case of `CC(C)Cn1c(N2CCN(C=O)CC2)nc2c(N3CCOCC3)nc(-c3cnc(N)nc3)nc21` [Example 90, 4-[2-(2-Aminopyrimidin-5-yl)-9-isobutyl-6-morpholin-4-yl-9H-purin-8-yl]piperazine-1-carboaldehyde], the inhibition at 10 mg/kg in assay [1] is greater than 60%; in assay [3], greater than 90%. Further, the GI50 in assay [2] was no more than 5000 nM. Besides, the IC50 in assay [4] was in the range of 10 to 20 nM.
With `CC[C@H]1CN(c2nc3c(N4CCOCC4)nc(-c4cnc(N)nc4)nc3n2CC(F)(F)F)CCN1C(=O)[C@H](C)O` [Example 77, (2S)-1-{(2S)-4-[2-(2-Aminopyrimidin-5-yl)-6-morpholin-4-yl-9-(2,2,2-trifluoroethyl)-9H-purin-8-yl]-2-ethylpiperazin-1-yl}-1-oxopropan-2-ol], the inhibition at 10 mg/kg in assay [1] was greater than 60%; in assay [3], greater than 90%. In assay [2], the GI50 is no more than 5000 nM. Also, the IC50 in assay [4] is less than 10 nM.
